Laboratory results as given in the supplement of paper PMC10307832.

Legend:
Assay in all cases: relative viability (nuclei count vs DMSO), 5 days (fraction); higher = more cells survive
[1] = test system: NCI-H2009
Procedure, shortened: (§1)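 Relative viability divides the nuclei count in treated wells by that in vehicle wells. Lung cancer cell lines were seeded in 1536-well plates, dosed by pin tool the next day, and fixed and stained after 5 days in one step with final 0.05% Triton X-100, 1% formaldehyde and 1 ug/ml Hoechst. Dosing was a single drug or a fixed anchor-drug dose plus five library-drug doses (not always all listed) in √10 steps, and values are medians of duplicate plates imaged at 4×.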

[2] = test system: NCI-H23
Procedure, shortened: as §1

[3] = test system: NCI-H2228
Procedure, shortened: as §1

[4] = test system: NCI-H2087
Procedure, shortened: as §1

[5] = test system: CAL-12T
Procedure, shortened: as §1

[6] = test system: HCC-15
Procedure, shortened: as §1

[7] = test system: NCI-H650
Procedure, shortened: as §1

[8] = test system: HCC-827
Procedure, shortened: as §1

[9] = test system: LCLC-97TM1
Procedure, shortened: as §1

[10] = test system: HARA
Procedure, shortened: as §1

[11] = test system: PC-3 [JPC-3]
Procedure, shortened: as §1

[12] = test system: NCI-H661
Procedure, shortened: as §1

[13] = test system: NCI-H2405
Procedure, shortened: as §1

[14] = test system: NCI-H1651
Procedure, shortened: as §1

[15] = test system: LU99A
Procedure, shortened: as §1

[16] = test system: NCI-H2170
Procedure, shortened: as §1

[17] = test system: NCI-H1395
Procedure, shortened: as §1

[18] = test system: COR-L 105
Procedure, shortened: as §1

[19] = test system: 201T
Procedure, shortened: as §1

[20] = test system: UMC-11
Procedure, shortened: as §1

[21] = test system: H3255
Procedure, shortened: as §1

[22] = test system: SK-MES-1
Procedure, shortened: as §1

Q: Which relative viability ([1]; first compound 0.08 µM) does the source give for `C=C1C(=O)O[C@@H](CCCCCCCC)[C@@H]1C(=O)O` [C-75] + O=C(CCCCCCC(=O)Nc1ccccc1)NO [Vorinostat] (partner 1 µM) here?
A: Its relative viability is 0.764.

Q: And the relative viability ([1]; first compound 0.253 µM)?
A: Its relative viability is 0.668.

Q: What about the relative viability ([1]; first compound 0.8 µM) of the same molecule?
A: The relative viability was 0.469.

Q: What about the relative viability ([1]; first compound 2.53 µM) of the same molecule?
A: Its relative viability is 0.783.

Q: What about the relative viability ([1]; first compound 8 µM) of the same molecule?
A: The relative viability was 0.715.

Q: And the relative viability ([2]; first compound 0.08 µM)?
A: The relative viability was 0.605.

Q: And the relative viability ([2]; first compound 0.253 µM)?
A: Its relative viability is 0.642.

Q: What about the relative viability ([2]; first compound 0.8 µM) of the same molecule?
A: The relative viability was 0.497.

Q: What about the relative viability ([2]; first compound 2.53 µM) of the same molecule?
A: The relative viability was 0.366.

Q: What about the relative viability ([2]; first compound 8 µM) of the same molecule?
A: The relative viability was 0.407.

Q: And the relative viability ([3]; first compound 0.08 µM)?
A: Its relative viability is 0.617.

Q: What about the relative viability ([3]; first compound 0.253 µM) of the same molecule?
A: The relative viability was 0.681.

Q: What about the relative viability ([3]; first compound 0.8 µM) of the same molecule?
A: Its relative viability is 0.661.

Q: What about the relative viability ([3]; first compound 2.53 µM) of the same molecule?
A: The relative viability was 0.67.

Q: What about the relative viability ([3]; first compound 8 µM) of the same molecule?
A: The relative viability was 0.562.

Q: And the relative viability ([4]; first compound 0.08 µM)?
A: Its relative viability is 0.683.

Q: What about the relative viability ([4]; first compound 0.253 µM) of the same molecule?
A: Its relative viability is 0.586.

Q: And the relative viability ([4]; first compound 0.8 µM)?
A: Its relative viability is 0.666.

Q: What about the relative viability ([4]; first compound 2.53 µM) of the same molecule?
A: The relative viability was 0.635.

Q: And the relative viability ([4]; first compound 8 µM)?
A: Its relative viability is 0.541.

Q: And the relative viability ([5]; first compound 0.08 µM)?
A: The relative viability was 0.721.

Q: And the relative viability ([5]; first compound 0.253 µM)?
A: The relative viability was 1.12.

Q: And the relative viability ([5]; first compound 0.8 µM)?
A: The relative viability was 0.918.

Q: What about the relative viability ([5]; first compound 2.53 µM) of the same molecule?
A: Its relative viability is 0.674.

Q: What about the relative viability ([5]; first compound 8 µM) of the same molecule?
A: The relative viability was 0.89.

Q: What about the relative viability ([6]; first compound 0.08 µM) of the same molecule?
A: The relative viability was 0.831.

Q: And the relative viability ([6]; first compound 0.253 µM)?
A: Its relative viability is 0.918.

Q: What about the relative viability ([6]; first compound 0.8 µM) of the same molecule?
A: Its relative viability is 0.838.

Q: What about the relative viability ([6]; first compound 2.53 µM) of the same molecule?
A: The relative viability was 0.862.

Q: What about the relative viability ([6]; first compound 8 µM) of the same molecule?
A: Its relative viability is 0.835.

Q: And the relative viability ([7]; first compound 0.08 µM)?
A: Its relative viability is 0.413.

Q: And the relative viability ([7]; first compound 0.253 µM)?
A: Its relative viability is 0.388.

Q: And the relative viability ([7]; first compound 0.8 µM)?
A: The relative viability was 0.401.

Q: And the relative viability ([7]; first compound 2.53 µM)?
A: Its relative viability is 0.351.

Q: And the relative viability ([7]; first compound 8 µM)?
A: Its relative viability is 0.416.

Q: What about the relative viability ([8]; first compound 0.253 µM) of the same molecule?
A: The relative viability was 0.662.

Q: And the relative viability ([8]; first compound 0.8 µM)?
A: Its relative viability is 0.721.

Q: What about the relative viability ([8]; first compound 8 µM) of the same molecule?
A: Its relative viability is 0.88.

Q: What about the relative viability ([9]; first compound 0.08 µM) of the same molecule?
A: The relative viability was 0.864.

Q: And the relative viability ([9]; first compound 0.253 µM)?
A: The relative viability was 0.817.

Q: What about the relative viability ([9]; first compound 0.8 µM) of the same molecule?
A: The relative viability was 0.49.

Q: And the relative viability ([9]; first compound 2.53 µM)?
A: Its relative viability is 0.413.

Q: And the relative viability ([9]; first compound 8 µM)?
A: Its relative viability is 0.455.

Q: And the relative viability ([10]; first compound 0.08 µM)?
A: Its relative viability is 0.598.

Q: And the relative viability ([10]; first compound 0.253 µM)?
A: Its relative viability is 0.258.

Q: And the relative viability ([10]; first compound 0.8 µM)?
A: Its relative viability is 0.415.

Q: And the relative viability ([10]; first compound 2.53 µM)?
A: The relative viability was 0.537.

Q: And the relative viability ([10]; first compound 8 µM)?
A: The relative viability was 0.438.

Q: And the relative viability ([11]; first compound 0.08 µM)?
A: Its relative viability is 0.837.

Q: What about the relative viability ([11]; first compound 0.253 µM) of the same molecule?
A: The relative viability was 0.819.

Q: And the relative viability ([11]; first compound 0.8 µM)?
A: The relative viability was 0.415.

Q: And the relative viability ([11]; first compound 2.53 µM)?
A: The relative viability was 0.583.

Q: And the relative viability ([11]; first compound 8 µM)?
A: The relative viability was 0.764.

Q: What about the relative viability ([12]; first compound 0.08 µM) of the same molecule?
A: The relative viability was 0.762.

Q: And the relative viability ([12]; first compound 0.253 µM)?
A: Its relative viability is 0.828.

Q: What about the relative viability ([12]; first compound 0.8 µM) of the same molecule?
A: The relative viability was 0.741.

Q: What about the relative viability ([12]; first compound 2.53 µM) of the same molecule?
A: The relative viability was 0.657.

Q: And the relative viability ([12]; first compound 8 µM)?
A: Its relative viability is 0.774.

Q: And the relative viability ([13]; first compound 0.08 µM)?
A: The relative viability was 1.

Q: And the relative viability ([13]; first compound 0.253 µM)?
A: The relative viability was 0.831.

Q: What about the relative viability ([13]; first compound 0.8 µM) of the same molecule?
A: The relative viability was 0.313.

Q: And the relative viability ([13]; first compound 2.53 µM)?
A: Its relative viability is 0.708.

Q: And the relative viability ([13]; first compound 8 µM)?
A: The relative viability was 0.891.

Q: What about the relative viability ([14]; first compound 0.08 µM) of the same molecule?
A: Its relative viability is 0.55.

Q: And the relative viability ([14]; first compound 0.253 µM)?
A: Its relative viability is 0.58.

Q: And the relative viability ([14]; first compound 0.8 µM)?
A: Its relative viability is 0.525.

Q: What about the relative viability ([14]; first compound 2.53 µM) of the same molecule?
A: Its relative viability is 0.522.

Q: What about the relative viability ([14]; first compound 8 µM) of the same molecule?
A: The relative viability was 0.509.

Q: And the relative viability ([15]; first compound 0.08 µM)?
A: The relative viability was 0.476.

Q: And the relative viability ([15]; first compound 0.253 µM)?
A: The relative viability was 0.549.

Q: What about the relative viability ([15]; first compound 0.8 µM) of the same molecule?
A: Its relative viability is 0.413.

Q: What about the relative viability ([15]; first compound 2.53 µM) of the same molecule?
A: Its relative viability is 0.552.

Q: And the relative viability ([15]; first compound 8 µM)?
A: Its relative viability is 0.495.

Q: And the relative viability ([16]; first compound 0.08 µM)?
A: Its relative viability is 0.803.

Q: What about the relative viability ([16]; first compound 0.253 µM) of the same molecule?
A: Its relative viability is 0.961.

Q: And the relative viability ([16]; first compound 0.8 µM)?
A: Its relative viability is 0.714.

Q: What about the relative viability ([16]; first compound 2.53 µM) of the same molecule?
A: Its relative viability is 0.697.

Q: What about the relative viability ([16]; first compound 8 µM) of the same molecule?
A: Its relative viability is 0.808.

Q: What about the relative viability ([17]; first compound 0.08 µM) of the same molecule?
A: The relative viability was 0.649.

Q: And the relative viability ([17]; first compound 0.253 µM)?
A: Its relative viability is 0.768.

Q: And the relative viability ([17]; first compound 2.53 µM)?
A: The relative viability was 0.634.

Q: And the relative viability ([17]; first compound 8 µM)?
A: Its relative viability is 0.711.

Q: What about the relative viability ([18]; first compound 0.08 µM) of the same molecule?
A: Its relative viability is 0.906.

Q: What about the relative viability ([18]; first compound 0.253 µM) of the same molecule?
A: The relative viability was 0.826.

Q: And the relative viability ([18]; first compound 0.8 µM)?
A: Its relative viability is 0.895.

Q: And the relative viability ([18]; first compound 2.53 µM)?
A: The relative viability was 0.859.

Q: And the relative viability ([18]; first compound 8 µM)?
A: Its relative viability is 0.813.

Q: What about the relative viability ([19]; first compound 0.08 µM) of the same molecule?
A: The relative viability was 0.976.

Q: And the relative viability ([19]; first compound 0.253 µM)?
A: Its relative viability is 1.31.

Q: And the relative viability ([19]; first compound 0.8 µM)?
A: Its relative viability is 0.91.

Q: What about the relative viability ([19]; first compound 2.53 µM) of the same molecule?
A: The relative viability was 0.936.

Q: What about the relative viability ([19]; first compound 8 µM) of the same molecule?
A: The relative viability was 0.979.

Q: What about the relative viability ([20]; first compound 0.08 µM) of the same molecule?
A: Its relative viability is 0.38.

Q: And the relative viability ([20]; first compound 0.253 µM)?
A: Its relative viability is 0.497.

Q: What about the relative viability ([20]; first compound 0.8 µM) of the same molecule?
A: Its relative viability is 0.343.

Q: And the relative viability ([20]; first compound 2.53 µM)?
A: The relative viability was 0.257.

Q: And the relative viability ([20]; first compound 8 µM)?
A: Its relative viability is 0.294.

Q: What about the relative viability ([21]; first compound 0.08 µM) of the same molecule?
A: Its relative viability is 0.846.

Q: And the relative viability ([21]; first compound 0.253 µM)?
A: The relative viability was 0.621.

Q: What about the relative viability ([21]; first compound 0.8 µM) of the same molecule?
A: The relative viability was 0.79.

Q: And the relative viability ([21]; first compound 2.53 µM)?
A: The relative viability was 0.627.

Q: What about the relative viability ([21]; first compound 8 µM) of the same molecule?
A: Its relative viability is 0.732.

Q: What about the relative viability ([22]; first compound 0.08 µM) of the same molecule?
A: Its relative viability is 1.08.

Q: And the relative viability ([22]; first compound 0.253 µM)?
A: The relative viability was 1.12.

Q: What about the relative viability ([22]; first compound 0.8 µM) of the same molecule?
A: Its relative viability is 1.06.

Q: And the relative viability ([22]; first compound 2.53 µM)?
A: Its relative viability is 1.04.

Q: What about the relative viability ([22]; first compound 8 µM) of the same molecule?
A: The relative viability was 1.1.
